Data taken from patent US6355673B1, “Substituted diaminocarboxylic acids” (Aventis Pharma Deutschland GmbH, priority 1997, dated 2002).

How the values were obtained:
[1] = target: T1, neutrophil collagenase (MMP-8) (Homo sapiens, UniProt P22894); assay: Enzyme inhibition of the catalytic domain of neutrophil collagenase (fluorogenic substrate); format: biochemical; conditions: 15 min preincubation, pH=6.5, fluorescence 328 nm (ex)/393 nm (em)
T1 construct: enzymatic activity of the catalytic domains of human stromelysin and of neutrophil collagenase; made in house
Method: (§1) Preparation and determination of the enzymatic activity of the catalytic domains of human stromelysin and of neutrophil collagenase.
(§2) The enzymes stromelysin (MMP-3) and neutrophil collagenase (MMP-8) were prepared according to Ye et al. (Biochemistry; 31 (1992) pages 11231-11235). To measure the enzyme activity or the enzyme inhibitor action, 70 μl of buffer solution and 10 μl of enzyme solution are incubated for 15 min with 10 μl of a 10% strength (v/v) aqueous dimethyl sulfoxide solution, which optionally contains the enzyme inhibitor. After addition of 10 μl of a 10% strength (v/v) aqueous dimethyl sulfoxide solution which contains 1 mil/L of the substrates, the enzyme reaction is monitored by fluorescence spectroscopy (328 nm (ex)/393 nm(em)). The enzyme activity is shown as the extinction increase/min. The IC50 values listed in Table 2 are determined as those inhibitor concentrations which in each case lead to a 50% inhibition of the enzyme.
(§3) The buffer solution contains 0.05% Brij (Sigma, Deisenhofen, Germany) and also 0.1 mol/L tris/HCl, 0.1 mol/L NaCl, 0.01 mol/L CaCl2 and 0.1 mol/L piperazine-N,N′-bis(2-ethanesulfonic acid) (pH=6.5). The enzyme solution contains 5 μg/ml of one of the enzyme domains prepared according to Ye et al. The substrate solution contains 1 mil/L of the fluorogenic substrate (7-methoxycoumarin-4-yl)acetyl-Pro-Leu-Gly-Leu-3-(2′,4′-dinitrophenyl)-L-2,3-diaminopropionyl-Ala-Arg-NH2 (Bachem, Heidelberg, Germany).

[2] = target: T2, stromelysin (MMP-3) (Homo sapiens, UniProt P08254); assay: Enzyme inhibition of the catalytic domain of human stromelysin (fluorogenic substrate); format: biochemical; conditions: 15 min preincubation, pH=6.5, fluorescence 328 nm (ex)/393 nm (em)
T2 construct: enzymatic activity of the catalytic domains of human stromelysin and of neutrophil collagenase; made in house
Method: as §1, §2, §3

T2 sequence (P08254 100-272 limits assumed): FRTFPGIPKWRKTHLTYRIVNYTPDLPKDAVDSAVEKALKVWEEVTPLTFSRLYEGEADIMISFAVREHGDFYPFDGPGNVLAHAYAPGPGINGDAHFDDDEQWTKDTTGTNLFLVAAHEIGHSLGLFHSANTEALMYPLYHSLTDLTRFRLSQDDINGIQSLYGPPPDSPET
T1 sequence (P22894 100-262 limits assumed): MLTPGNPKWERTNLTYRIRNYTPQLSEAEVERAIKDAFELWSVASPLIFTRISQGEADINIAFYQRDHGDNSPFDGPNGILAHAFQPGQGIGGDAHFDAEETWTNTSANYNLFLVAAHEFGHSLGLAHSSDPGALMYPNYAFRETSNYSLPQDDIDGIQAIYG

IC50 [1] | IC50 [2] | Structure (SMILES)
40 nM | 40 nM | O=C(O)c1ccccc1S(=O)(=O)NCCC[C@H](NS(=O)(=O)c1ccc(-c2ccc(Cl)cc2)cc1)C(=O)O [Example 76]
3 nM | 10 nM | O=C(CC[C@@H](C(=O)O)c1ccccc1)NCCC[C@H](NS(=O)(=O)c1ccc(-c2ccc(Cl)cc2)cc1)C(=O)O [Example 80]
3 nM | 7 nM | O=C(NCCC[C@H](NS(=O)(=O)c1ccc(-c2ccc(Cl)cc2)cc1)C(=O)O)c1ccccc1Cl [Example 83]
4 nM | 20 nM | O=C(NCCC[C@H](NS(=O)(=O)c1ccc(-c2ccc(Cl)cc2)cc1)C(=O)O)C1CSCN1 (some centres unmarked) [Example 84]
10 nM | 30 nM | O=C(NCCC[C@H](NS(=O)(=O)c1ccc(-c2ccc(Cl)cc2)cc1)C(=O)O)c1ccc(F)c(F)c1 [Example 87]
3 nM | 10 nM | O=C(NCCC[C@H](NS(=O)(=O)c1ccc(-c2ccc(Cl)cc2)cc1)C(=O)O)c1ccccc1F [Example 88]
10 nM | 30 nM | O=C(Cc1ccc(Cl)cc1)NCCC[C@H](NS(=O)(=O)c1ccc(-c2ccc(Cl)cc2)cc1)C(=O)O [Example 89]
5 nM | 30 nM | O=C(NCCC[C@H](NS(=O)(=O)c1ccc(-c2ccc(Cl)cc2)cc1)C(=O)O)c1cccc(Cl)c1 [Example 91]
20 nM | 40 nM | O=C(NCCC[C@H](NS(=O)(=O)c1ccc(-c2ccc(Cl)cc2)cc1)C(=O)O)c1ccc(Cl)c(Cl)c1 [Example 92]
4 nM | 20 nM | O=C(NCCC[C@H](NS(=O)(=O)c1ccc(-c2ccc(Cl)cc2)cc1)C(=O)O)c1cc(F)cc(F)c1 [Example 93]
5 nM | 30 nM | O=C(NCCC[C@H](NS(=O)(=O)c1ccc(-c2ccc(Cl)cc2)cc1)C(=O)O)c1cc(F)ccc1F [Example 94]
6 nM | 20 nM | O=C(NCCC[C@H](NS(=O)(=O)c1ccc(-c2ccc(Cl)cc2)cc1)C(=O)O)C1Cc2ccccc2N1 (some centres unmarked) [Example 96]
4 nM | 20 nM | O=C(NCCC[C@H](NS(=O)(=O)c1ccc(-c2ccc(Cl)cc2)cc1)C(=O)O)c1cccc(F)c1F [Example 97]
2 nM | 5 nM | O=C(NCCC[C@H](NS(=O)(=O)c1ccc(-c2ccc(Cl)cc2)cc1)C(=O)O)c1ccco1 [Example 99]
10 nM | 40 nM | O=C(NCCC[C@H](NS(=O)(=O)c1ccc(-c2ccc(Cl)cc2)cc1)C(=O)O)c1ccc(OC(F)(F)F)cc1 [Example 105]
30 nM | 60 nM | CCCCOc1ccc(C(=O)NCCC[C@H](NS(=O)(=O)c2ccc(-c3ccc(Cl)cc3)cc2)C(=O)O)cc1 [Example 106]
4 nM | 10 nM | Nc1ccc(C(=O)NCCC[C@H](NS(=O)(=O)c2ccc(-c3ccc(Cl)cc3)cc2)C(=O)O)cc1 [Example 107]
7 nM | 20 nM | O=C(NCCC[C@H](NS(=O)(=O)c1ccc(-c2ccc(Cl)cc2)cc1)C(=O)O)c1ccc(C(F)(F)F)cc1F [Example 109]
20 nM | 40 nM | O=C(NCCC[C@H](NS(=O)(=O)c1ccc(-c2ccc(Cl)cc2)cc1)C(=O)O)c1ccc2ccccc2c1 [Example 110]
3 nM | 10 nM | O=C(Cc1cccs1)NCCC[C@H](NS(=O)(=O)c1ccc(-c2ccc(Cl)cc2)cc1)C(=O)O [Example 111]
3 nM | 5 nM | O=C(O)[C@H](CCCN(Cc1ccccc1)C(=O)C1CC1)NS(=O)(=O)c1ccc(-c2ccc(Cl)cc2)cc1 [Example 113]
3 nM | 5 nM | O=C(NCCC[C@H](NS(=O)(=O)c1ccc(-c2ccc(Cl)cc2)cc1)C(=O)O)c1ccc(Cl)cc1Cl [Example 115]
4 nM | 20 nM | O=C(Cc1ccc(F)cc1)NCCC[C@H](NS(=O)(=O)c1ccc(-c2ccc(Cl)cc2)cc1)C(=O)O [Example 116]
2 nM | 9 nM | O=C(NCCC[C@H](NS(=O)(=O)c1ccc(-c2ccc(Cl)cc2)cc1)C(=O)O)c1ccccc1 [Example 117]
4 nM | 10 nM | CC(C)COC(=O)NCCC[C@H](NS(=O)(=O)c1ccc(-c2ccc(Cl)cc2)cc1)C(=O)O [Example 118]
2 nM | 3 nM | O=C(NCCC[C@H](NS(=O)(=O)c1ccc(-c2ccc(Cl)cc2)cc1)C(=O)O)c1cccs1 [Example 122]
10 nM | 30 nM | O=C(NCCC[C@H](NS(=O)(=O)c1ccc(-c2ccc(Cl)cc2)cc1)C(=O)O)c1ccc2ncccc2c1 [Example 126]
2 nM | 5 nM | O=C(O)[C@H](CCCNC(=O)N1CCOCC1)NS(=O)(=O)c1ccc(-c2ccc(Cl)cc2)cc1 [Example 128]
4 nM | 20 nM | O=C(NCCC[C@H](NS(=O)(=O)c1ccc(-c2ccc(Cl)cc2)cc1)C(=O)O)c1cccc(C(F)(F)F)c1 [Example 130]

Continued, compound first:

Structure (SMILES) | IC50 [1] | IC50 [2]
CC(=O)Oc1ccccc1C(=O)NCCC[C@H](NS(=O)(=O)c1ccc(-c2ccc(Cl)cc2)cc1)C(=O)O [Example 73] | 2 nM | 4 nM
O=C(NCCC[C@H](NS(=O)(=O)c1ccc(-c2ccc(Cl)cc2)cc1)C(=O)O)c1ccccc1O [Example 74] | 3 nM | 10 nM
NC(=O)C1(C(=O)NCCC[C@H](NS(=O)(=O)c2ccc(-c3ccc(Cl)cc3)cc2)C(=O)O)CC1 [Example 75] | 4 nM | 20 nM
C[C@@H]1NC(=O)N(CCC[C@H](NS(=O)(=O)c2ccc(-c3ccc(Cl)cc3)cc2)C(=O)O)C1=O [Example 77] | 2 nM | 10 nM
O=C(CC[C@H](C(=O)O)c1ccccc1)NCCC[C@H](NS(=O)(=O)c1ccc(-c2ccc(Cl)cc2)cc1)C(=O)O [Example 79] | 2 nM | 5 nM
CC(C)(CC(=O)O)CC(=O)NCCC[C@H](NS(=O)(=O)c1ccc(-c2ccc(Cl)cc2)cc1)C(=O)O [Example 81] | 3 nM | 30 nM
CCC(=O)NCCC[C@H](NS(=O)(=O)c1ccc(-c2ccc(Cl)cc2)cc1)C(=O)O [Example 82] | 4 nM | 20 nM
N#Cc1ccc(C(=O)NCCC[C@H](NS(=O)(=O)c2ccc(-c3ccc(Cl)cc3)cc2)C(=O)O)cc1 [Example 85] | 5 nM | 20 nM
O=C(NCCC[C@H](NS(=O)(=O)c1ccc(-c2ccc(Cl)cc2)cc1)C(=O)O)c1ccc(F)cc1F [Example 86] | 4 nM | 20 nM
O=C(NCCC[C@H](NS(=O)(=O)c1ccc(-c2ccc(Cl)cc2)cc1)C(=O)O)c1ccc(Cl)cc1 [Example 90] | 5 nM | 20 nM
O=C(NCCC[C@H](NS(=O)(=O)c1ccc(-c2ccc(Cl)cc2)cc1)C(=O)O)c1cccc(F)c1 [Example 95] | 4 nM | 20 nM
COCC(=O)NCCC[C@H](NS(=O)(=O)c1ccc(-c2ccc(Cl)cc2)cc1)C(=O)O [Example 98] | 3 nM | 10 nM
Cc1ccsc1C(=O)NCCC[C@H](NS(=O)(=O)c1ccc(-c2ccc(Cl)cc2)cc1)C(=O)O [Example 100] | 2 nM | 4 nM
O=C(/C=C/c1ccccc1)NCCC[C@H](NS(=O)(=O)c1ccc(-c2ccc(Cl)cc2)cc1)C(=O)O [Example 101] | 10 nM | 40 nM
O=C(NCCC[C@H](NS(=O)(=O)c1ccc(-c2ccc(Cl)cc2)cc1)C(=O)O)c1ccc(O)cc1 [Example 102] | 5 nM | 20 nM
O=C(NCCC[C@H](NS(=O)(=O)c1ccc(-c2ccc(Cl)cc2)cc1)C(=O)O)c1ccc(Cc2ccccc2)cc1 [Example 103] | 60 nM | 70 nM
COc1ccc(C(=O)NCCC[C@H](NS(=O)(=O)c2ccc(-c3ccc(Cl)cc3)cc2)C(=O)O)c(OC)c1 [Example 104] | 8 nM | 30 nM
O=C(CC1CCCCC1)NCCC[C@H](NS(=O)(=O)c1ccc(-c2ccc(Cl)cc2)cc1)C(=O)O [Example 108] | 5 nM | 20 nM
O=C(O)[C@H](CCCn1sc2ccccc2c1=O)NS(=O)(=O)c1ccc(-c2ccc(Cl)cc2)cc1 [Example 114] | 2 nM | 5 nM
Cc1ccc(C(=O)NCCC[C@H](NS(=O)(=O)c2ccc(-c3ccc(Cl)cc3)cc2)C(=O)O)s1 [Example 120] | 4 nM | 20 nM
O=C(NCCC[C@H](NS(=O)(=O)c1ccc(-c2ccc(Cl)cc2)cc1)C(=O)O)c1ccc2[nH]nnc2c1 [Example 125] | 10 nM | 10 nM
O=C(NCCC[C@H](NS(=O)(=O)c1ccc(-c2ccc(Cl)cc2)cc1)C(=O)O)c1ccncc1 [Example 127] | 3 nM | 20 nM
O=C(NCCC[C@H](NS(=O)(=O)c1ccc(-c2ccc(Cl)cc2)cc1)C(=O)O)c1ccccc1C(F)(F)F [Example 129] | 2 nM | 10 nM
